Target: hGYS1 enzyme (recombinant hGYS1/GN1 protein) (Homo sapiens (Human), UniProt P13807)
Assay: GYS1 coupled enzyme assay (PK/LDH)
Format: biochemical
Conditions: hGYS1/GN1 50 nM, UDP-Glucose 0.8 mM, G6P 1 mM; geometric mean of at least 2 runs
Excerpt: The GYS1 coupled enzyme assay is a kinetic biochemical assay that indirectly quantifies the rate of glycogen synthesis by coupling the conversion of GYS1 substrate UDP-glucose into UDP with downstream enzymatic reactions. UDP is released from UDP-glucose as glucose monomers are linked into the growing glycogen strand by GYS1. The coupled assay then proceeds with pyruvate kinase utilizing UDP and phospho(enol)pyruvate (PEP) to form pyruvate. Lactate dehydrogenase then converts pyruvate and NADH into lactate and NAD+. Oxidation of NADH to NAD+ can be measured continuously with a plate reader by quantifying the decrease in NADH absorbance at 340 nm over time.
Compounds that inhibit the hGYS1 enzyme and, subsequently, the downstream conversion of NADH to NAD+, were tested using assay ready plates (black, clear bottom 384 well plates) in a final DMSO reaction volume of 2.5% DMSO. The Assay Buffer contained 50 mM Tris pH 7.5, 2 mM MgCl2, and 100 mM KCl. Fresh stocks of BSA at a final concentration of 0.02% and TCEP at 1 mM were added before splitting buffer into hGYS1 buffer and substrate buffer. To the hGYS1 buffer, rabbit liver glycogen was added at a final concentration of 0.2% glycogen. Glucose-6-Phosphate was added at 1 mM, recombinant hGYS1/GN1 protein was added at 50 nM to the substrate buffer, phosphoenolpyruvate (PEP) was added at 2 mM, UDP-Glucose was added at 0.8 mM, NADH) was added at 0.6 mM, and Pyruvate Kinase/Lactate Dehydrogenase was added at 20 units/mL. The reaction was initiated by mixing hGYS1 buffer and substrate buffer at a 1:1 ratio. Both buffers were plated using a liquid dispensing device with hGYS1 buffer plated first followed by the substrate buffer. Plates were spun briefly to eliminate air bubbles and are immediately read in continuous mode at an absorbance of 340 nm, for 10 time points in one-minute increments, for a total of 10 minutes. The slope from these 10 time points was normalized to the positive and negative control wells. The duplicate % inhibition values are then averaged and fit to a Hill equation for dose response according to the Levenberg-Marquardt algorithm with the Hill equation maximum set to 100 and the minimum set to 0.
Unless otherwise specified, IC50 values are reported as the geometric mean of at least 2 assay runs on separate days. Each run represents the average of a technical replicate, where each compound was assayed twice in the same plate. […] A superscript “#” symbol in Table 2 indicates results from a single assay run.

hGYS1 enzyme (recombinant hGYS1/GN1 protein), sequence (P13807 whole entry): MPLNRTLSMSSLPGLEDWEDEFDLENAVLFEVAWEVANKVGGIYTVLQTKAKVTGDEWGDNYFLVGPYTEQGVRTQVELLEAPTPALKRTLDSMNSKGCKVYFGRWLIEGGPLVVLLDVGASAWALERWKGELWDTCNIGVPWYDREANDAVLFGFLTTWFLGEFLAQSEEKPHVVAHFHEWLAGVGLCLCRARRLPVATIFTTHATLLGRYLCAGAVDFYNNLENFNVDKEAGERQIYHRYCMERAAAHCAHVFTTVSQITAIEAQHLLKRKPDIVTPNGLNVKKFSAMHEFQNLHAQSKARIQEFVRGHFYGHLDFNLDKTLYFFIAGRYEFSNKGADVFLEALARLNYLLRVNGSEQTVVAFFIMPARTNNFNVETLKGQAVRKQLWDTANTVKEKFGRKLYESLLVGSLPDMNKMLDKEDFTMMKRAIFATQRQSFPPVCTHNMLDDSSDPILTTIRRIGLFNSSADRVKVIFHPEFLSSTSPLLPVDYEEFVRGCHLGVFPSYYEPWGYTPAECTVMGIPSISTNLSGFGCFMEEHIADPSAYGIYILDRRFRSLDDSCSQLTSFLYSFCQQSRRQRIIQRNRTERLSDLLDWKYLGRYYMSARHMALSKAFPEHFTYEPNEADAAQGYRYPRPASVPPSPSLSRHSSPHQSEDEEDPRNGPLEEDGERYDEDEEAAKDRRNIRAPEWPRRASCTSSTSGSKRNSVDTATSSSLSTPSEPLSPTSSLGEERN
hGYS1 enzyme (recombinant hGYS1/GN1 protein), sequence (P46976 whole entry partner): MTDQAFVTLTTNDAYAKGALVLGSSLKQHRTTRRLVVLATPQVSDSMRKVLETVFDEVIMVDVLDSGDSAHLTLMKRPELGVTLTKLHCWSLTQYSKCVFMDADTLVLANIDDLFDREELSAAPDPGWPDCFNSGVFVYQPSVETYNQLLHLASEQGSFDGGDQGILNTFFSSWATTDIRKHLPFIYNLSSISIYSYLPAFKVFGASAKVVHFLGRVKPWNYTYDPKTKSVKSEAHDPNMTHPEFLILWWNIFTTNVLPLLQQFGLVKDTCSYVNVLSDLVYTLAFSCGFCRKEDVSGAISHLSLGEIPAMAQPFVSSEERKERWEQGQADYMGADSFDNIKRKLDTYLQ

| SMILES | IC50 |
| --- | --- |
| CC(C)c1cnc(C(NC(=O)[C@@H]2C[C@@H](F)CN2C(=O)Cc2cnn[nH]2)c2ccccc2)cc1C(F)F (single isomer, unassigned) [Compound 606, (2S,4R)-N-[(S) or (R)-[4-(difluoromethyl)-5-(propan-2-yl)pyridin-2-yl](phenyl)methyl]-4-fluoro-1-[2-(1H-1,2,3-triazol-5-yl)acetyl]pyrrolidine-2-carboxamide] | 1130 nM |
| CC(=O)NCC(=O)N1CCC[C@H]1C(=O)NC(c1ccc(C2CC2)c(F)c1)c1ccn[nH]1 (single isomer, unassigned) [Compound 615, (2S)-N-[(R) or (S)-(4-cyclopropyl-3-fluorophenyl)(1H-pyrazol-5-yl)methyl]-1-(2-acetamidoacetyl) pyrrolidine-2-carboxamide] | 1580 nM |
| CC(C)c1ccc(C(NC(=O)[C@@H]2C[C@@H](F)CN2C(=O)Cc2cnn[nH]2)c2ccc(F)cn2)cc1F (single isomer, unassigned) [Compound 616, (2S,4R)-4-fluoro-N-[(R) or (S)-[3-fluoro-4-(propan-2-yl)phenyl](5-fluoropyridin-2-yl)methyl]-1-[2-(1H-1,2,3-triazol-5-yl)acetyl]pyrrolidine-2-carboxamide] | 1320 nM |
| CC(C)c1ccc(C(NC(=O)[C@@H]2C[C@@H](F)CN2C(=O)Cc2cnn[nH]2)c2cncc(F)c2)cc1F (single isomer, unassigned) [Compound 617, (2S,4R)-4-fluoro-N-[(R) or (S)-[3-fluoro-4-(propan-2-yl)phenyl](5-fluoropyridin-3-yl)methyl]-1-[2-(1H-1,2,3-triazol-5-yl)acetyl]pyrrolidine-2-carboxamide] | 1640 nM |
| CC(C)c1ccc(C(NC(=O)[C@@H]2C[C@@H](F)CN2C(=O)Cc2cnn[nH]2)c2ccnc(N)c2)cc1F (single isomer, unassigned) [Compound 618, (2S,4R)-N-[(S) or (R)-(2-aminopyridin-4-yl)[3-fluoro-4-(propan-2-yl)phenyl]methyl]-4-fluoro-1-[2-(1H-1,2,3-triazol-5-yl)acetyl]pyrrolidine-2-carboxamide] | 1520 nM |
| CC(C)c1ccc(C(NC(=O)[C@@H]2C[C@@H](F)CN2C(=O)Cc2cnn[nH]2)c2ccncc2F)cc1F (single isomer, unassigned) [Compound 619, (2S,4R)-4-fluoro-N-[(R) or (S)-[3-fluoro-4-(propan-2-yl)phenyl](3-fluoropyridin-4-yl)methyl]-1-[2-(1H-1,2,3-triazol-5-yl)acetyl]pyrrolidine-2-carboxamide] | 1160 nM |
| CC(=O)N1CCC[C@H]1C(=O)NC(c1ccc(C(C)C)cn1)c1ccccc1C (single isomer, unassigned) [Compound 641, (2S)-1-acetyl-N-[(S) or (R)-(2-methylphenyl)[5-(propan-2-yl)pyridin-2-yl]methyl]pyrrolidine-2-carboxamide] | 2950 nM |
| CC(=O)NCC(=O)N1CCC[C@H]1C(=O)NC(c1ccc(C2CC2)c(F)c1)c1cccc2[nH]c(=O)oc12 (single isomer, unassigned) [Compound 643, (2S)-N-[(R) or (S)-(4-cyclopropyl-3-fluorophenyl)(2-oxo-2,3-dihydro-1,3-benzoxazol-7-yl)methyl]-1-(2-acetamidoacetyl) pyrrolidine-2-carboxamide] | 2180 nM |
| O=C(NC(c1ccc(C2CC2)c(F)c1)c1cccc2[nH]c(=O)[nH]c12)[C@@H]1CCCN1C(=O)Cc1cnn[nH]1 (single isomer, unassigned) [Compound 648] | 616 nM |
| CC(C)c1c(F)cc(C(NC(=O)[C@@H]2C[C@@H](F)CN2C(=O)Cc2cnn[nH]2)c2ccccc2)cc1F (single isomer, unassigned) [Compound 666, (2S,4R)-N-[(R) or (S)-[3,5-difluoro-4-(propan-2-yl)phenyl](phenyl)methyl]-4-fluoro-1-[2-(1H-1,2,3-triazol-5-yl)acetyl]pyrrolidine-2-carboxamide] | 2270 nM |
| O=C(NC(c1ccccc1)c1ccc(C2CCC2)c(F)c1)[C@@H]1C[C@@H](F)CN1C(=O)Cc1cnn[nH]1 (single isomer, unassigned) [Compound 673, (2S,4R)-N-[(R) or (S)-(4-cyclobutyl-3-fluorophenyl)(phenyl)methyl]-4-fluoro-1-[2-(1H-1,2,3-triazol-5-yl)acetyl]pyrrolidine-2-carboxamide] | 1740 nM |
| CC(C)c1ccc([C@@H](NC(=O)[C@@H]2C[C@@H](F)CN2C(=O)Cc2cc[nH]n2)c2ccccc2)cc1 (stereo in doubt) [Compound 225, (2RS,4R)-4-fluoro-N-[(S)-phenyl[4-(propan-2-yl)phenyl]methyl]-1-[2-(1H-pyrazol-3-yl)acetyl]pyrrolidine-2-carboxamide] | 44 nM |
| CC(=O)N1CCC2(CC(C(=O)N3C[C@H](F)C[C@H]3C(=O)N[C@@H](c3ccccc3)c3ccc(C(C)C)cc3)=NO2)C1 (stereo partly drawn) [Compound 4, (2S,4R)-{7-acetyl-1-oxa-2,7-diazaspiro[4.4]non-2-ene-3-carbonyl}-4-fluoro-N-[(S)-phenyl[4-(propan-2-yl)phenyl]methyl]pyrrolidine-2-carboxamide] | 998 nM |
| CO[C@H](C)[C@@H](C(=O)N1C[C@H](F)C[C@H]1C(=O)N[C@@H](c1ccccc1)c1ccc(C(C)C)cc1)N(C)C(C)=O [Compound 5, (2S,4R)-4-fluoro-1-[(2S,3R)-3-methoxy-2-(N-methylacetamido)butanoyl]-N-[(S)-phenyl[4-(propan-2-yl)phenyl]methyl]pyrrolidine-2-carboxamide] | 353 nM |

The next lines start with the values.

| IC50 | SMILES |
| --- | --- |
| 381 nM | Cc1cn(CC(=O)N2C[C@H](F)C[C@H]2C(=O)N[C@@H](c2ccccc2)c2ccc(C(C)C)c(F)n2)c(=O)[nH]c1=O (relative stereo) [Compound 778, (2S,4R)-4-fluoro-N-[(R*)-[6-fluoro-5-(propan-2-yl)pyridin-2-yl](phenyl)methyl]-1-[2-(5-methyl-2,4-dioxo-1,2,3,4-tetrahydropyrimidin-1-yl)acetyl]pyrrolidine-2-carboxamide] |
| 555 nM | CC(C)c1ccc(C(NC(=O)[C@@H]2C[C@@H](F)CN2C(=O)Cc2cnn[nH]2)c2cccc(N)n2)cc1F (single isomer, unassigned) [Compound 621, (2S,4R)-N-[(R) or (S)-(6-aminopyridin-2-yl)[3-fluoro-4-(propan-2-yl)phenyl]methyl]-4-fluoro-1-[2-(1H-1,2,3-triazol-5-yl)acetyl]pyrrolidine-2-carboxamide] |
| 106 nM | CC(=O)N1C[C@H](F)C[C@H]1C(=O)N[C@@H](c1cccc(-c2nnc[nH]2)c1)c1ccc(C(C)C)c(F)n1 (single isomer, unassigned) [Compound 688, (2S,4R)—N—((S) or (R)-(3-(4H-1,2,4-triazol-3-yl)phenyl)(6-fluoro-5-isopropylpyridin-2-yl)methyl)-1-acetyl-4-fluoropyrrolidine-2-carboxamide] |
| > 10000 nM | CC(=O)N1C[C@H](F)C[C@H]1C(=O)N[C@H](c1cccc(-c2nnc[nH]2)c1)c1ccc(C(C)C)c(F)n1 (single isomer, unassigned) [Compound 689, (2S,4R)—N—((R) or (S)-(3-(4H-1,2,4-triazol-3-yl)phenyl)(6-fluoro-5-isopropylpyridin-2-yl)methyl)-1-acetyl-4-fluoropyrrolidine-2-carboxamide] |
| 151 nM | CC(=O)N1C[C@H](F)C[C@H]1C(=O)NC(c1cccc(-c2ccno2)c1)c1ccc(C(C)C)c(F)n1 (single isomer, unassigned) [Compound 698, (2S,4R)-1-acetyl-4-fluoro-N-[(S) or (R)-[6-fluoro-5-(propan-2-yl)pyridin-2-yl][3-(1,2-oxazol-5-yl)phenyl]methyl] pyrrolidine-2-carboxamide] |
| 51 nM | CC(=O)N1C[C@H](F)C[C@H]1C(=O)NC(c1cccc(-n2cccn2)c1)c1ccc(C(C)C)c(F)n1 (single isomer, unassigned) [Compound 699, (2S,4R)-1-acetyl-4-fluoro-N-[(S) or (R)-[6-fluoro-5-(propan-2-yl)pyridin-2-yl][3-(1H-pyrazol-1-yl)phenyl]methyl] pyrrolidine-2-carboxamide] |
| 321 nM | CC(=O)N1C[C@H](F)C[C@H]1C(=O)NC(c1cccc(-c2nnco2)c1)c1ccc(C(C)C)c(F)n1 (single isomer, unassigned) [Compound 700, (2S,4R)-1-acetyl-4-fluoro-N-[(S) or (R)-[6-fluoro-5-(propan-2-yl)pyridin-2-yl][3-(1,3,4-oxadiazol-2-yl)phenyl]methyl] pyrrolidine-2-carboxamide] |
